The text below walks through data of patent publication US9321849B2, “Uranium-chelating peptides and uses thereof” (priority 2003, dated 2016).

Like-named read-outs stand apart in the source and are kept apart here.

The subject of experiment [1] is MLCKp peptide (calmodulin-binding domain of myosin light chain kinase). Description: Tryptophan fluorescence of the MLCKp ligand peptide in the presence of calmodulin. Also noted: species or system rabbit. To be noted: 5 μM MLCKp. The protocol:
The fluorescence spectra are recorded on a Cary Eclipse spectrometer (Varian, France) equipped with a thermostated cuvette holder. The excitation wavelength used is 280 nm with slot widths of 10 nm for excitation and of 2.5 nm for emission. The spectra are recorded between 300 nm and 450 nm in a cuvette with a 1 cm optical path.
In the presence of calcium, calmodulin can bind and activate a large diversity of targets. Among these, the MLCKp peptide, which has 17 residues and is derived from the calmodulin-binding domain of a rabbit muscle myosin light chain kinase (CALBIOCHEM), has the following sequence:
In a first series, a fluorescence spectrum for the tryptophan of the ligand, dissolved at a concentration of 5 μM in a 10 mM MES buffer, at pH 6.5, was recorded as described in example 1.
Excitation of the solution at 280 nm makes it possible to detect an emission at 350 nm, characteristic of a tryptophan exposed to the aqueous solvent.
This is compatible with a structure similar to that obtained in the case of calcium. […] The emission detected is then that of the metal (λ>450 nm) and no longer that of the tryptophan.

Experiment [2] can be described thus: TRLS titration of uranyl nitrate with calmodulin, Dynafit simulation. In kind it is binding. The note with it: 0.4 μM uranyl nitrate, 1.0 mM phosphate buffer pH 7.0, two-site simulation. The protocol:
(§1) The coordination of uranium (in uranyl form, 2.0 μM) by the native protein in 1 mM phosphate medium was also studied. The complexation of uranium with the protein is reflected by a drop in uranyl fluorescence intensity. The titration spectra are represented in FIG. 13. In another experiment, a 0.4 μM solution of uranyl nitrate in a 1.0 mM phosphate buffer (pH 7.0) was titrated with a solution of calmodulin up to a protein concentration of 8 μM. After the addition of 8 μM of calmodulin, calcium ions were added up to the concentration of 8 mM (FIG. 14). The values for the titration of uranyl by calmodulin were interpreted by simulating the experimental data with a system of equations corresponding to one, two, three or four independent sites for uranium (FIG. 16). The Dynafit software (Kuzmic, P. 1996, Anal. Biochem. 237, 260-273) was used for these simulations. […] The values for competition with the calcium ions were also interpreted with a system of suitable equations and the simulation of the experimental points with this system is given in FIG. 17. […] It is also considered, as a hypothesis, that each of these two sites is independent of the other. […]

The nature of experiment [3]: Competition between calcium and uranyl for calmodulin, Dynafit simulation. It is filed as binding. The note with it: 8 μM calmodulin, 0.4 μM uranyl, calcium up to 8 mM. The protocol:
as §1

Turning to calmodulin, the “increase in intensity of ligand tryptophan fluorescence” value in experiment [1] (10 mM MES pH 6.5, one equivalent of calmodulin, absence of metals) came out at 25%; in experiment [1] (one equivalent of calmodulin, 10 equivalents of calcium), 20%. The “ligand tryptophan fluorescence in the presence of uranyl” value in experiment [1] (one equivalent of calmodulin, uranyl) is “complete extinction of the fluorescence”. The Kd in experiment [2] (read-out: dissociation constant, uranyl, first of two high-affinity sites) was 3.3 ± 0.4 µM; in experiment [2] (read-out: dissociation constant, uranyl, second of two high-affinity sites) it was 0.72 ± 0.2 µM. In addition, the “displacement of uranium by calcium” value in experiment [3] is “just one of the two sites complexed with uranium is displaced by calcium”.
